# Data from patent publication US20090111795A1, “Multimers of Heterocyclic Compounds and Their Use” (priority 2005, published 2009).
compound,measurement,value
CCOC(=O)C1=C(C)N(c2cccc(C(F)(F)F)c2)C(=O)N(CC(=O)NCC[N+](C)(C)CCNC(=O)CN2C(=O)N(c3cccc(C(F)(F)F)c3)C(C)=C(C(=O)OCC)[C@H]2c2ccc(C#N)cc2)[C@@H]1c1ccc(C#N)cc1.O=C([O-])CCC(=O)O,melting point,138 to 143 °C
